Assay results published in patent US20200181089A1, “4-ANILINO-QUINOLINE COMPOUNDS AS ANTI-CANCER AGENTS” (INSERM (INSTITUT NATIONAL DE LA SANTÉ ET DE LA RECHERCHE …, priority 2016, published 2020).
Like-named read-outs stand apart in the source and are kept apart here.

Key:
[1] = test system: A375 cells; experiment: A375 cell proliferation assay (trypan blue exclusion); assay type: cell-based; settings: Homo sapiens, A-375, treated/untreated cell number; for activity at 1 µM: A375, 1 μM; for activity at 10 µM: A375, 10 μM
Method: Cells were counted using a Malassez chamber. The average and standard deviation were calculated from triplicate experiments. Antiproliferative effects were evaluated by trypan blue exclusion assay. Briefly, cells were seeded into 12-well plate and grown in media supplemented with indicated compound at 1 or 10 μM for 48 h or 96 h. Cells were washed with PBS and detached by trypsinization, collected and colored by trypan blue. Dead and living cells were counted and proliferation was calculated as follow: Proliferation (%)=[(treated cell number/untreated cells number)*100].

[2] = test system: normal human melanocytes or fibroblasts; experiment: Proliferation of normal human melanocytes or fibroblasts; assay type: cell-based
[3] = Tolerability in treated CT26 tumor-bearing mice; assay type: in vivo; settings: 10 mg/kg intraperitoneal
Method: In order to evaluate the new approach in different types of cancer, compound 5 was tested in colorectal cancer cells. CT26 cells were subcutaneously injected into syngeneic mice. After 3 days, the mice were treated intraperitoneally with DZNEP, compound 5, and anti-PD1 as monotherapies and combined. Additional treatments in which the mice received DZNEP or compound 5 plus anti-PD1 with an anti-CD8 antibody added to neutralize the T-cell response were included. […] Signs of tumor regression and tumor-free mice were even observed. […] The number of M1 macrophages and the percentage of M1 macrophages among the total macrophage population were increased in all the treated mice, especially in the mice that received the combination treatments (FIG. 2C). Each of the treatments increased the numbers and activation of DCs and the numbers of CD8+ and CD4+ cells infiltrating the tumors (FIG. 2D). […] Finally, CD3+ T-cells were isolated by negative selection from the spleens of the treated mice and cocultured with naïve CT26 cells.

[4] = test system: EZH2 transcription; experiment: Ability to decrease EZH2 mRNA level in A375 (dose-response, quantitative PCR); assay type: cell-based; settings: Homo sapiens, A-375, 96 h; A375 cells, incubated 4 days; read-out: IC50 (concentration necessary to obtain 50% of EZH2 transcription activity)
Method: Typically, 30000-50000 cells were plated in six-well culture plates and incubated 24 h later with increasing concentration of NIK inhibitors or vehicle. Cells were incubated with the inhibitors for 4 days prior to harvesting for RNA extraction and PCR. Total RNA was isolated from cells using the RNAeasy minikit (Qiagen) according to the manufacturer's procedure. Reverse transcription was performed using the AMV reverse transcription system (Promega), and quantitative PCR was performed with Power Sybr green (Applied Biosystems, Life Technologies, Grand Island, N.Y.) following the manufacturer's instructions. The PCR was carried out on a Step One plus Real-Time PCR system (Applied Biosystems). All analyses were done in triplicate, and a melting curve analysis was performed to control for product quality and specificity. Expression levels were calculated using the comparative method of relative quantification, with SB34 as a normalizer. The data were analyzed for statistical significance using Student's t-test. The results are presented as the mean±SEM relative to the control. Primers were obtained from primer bank or primer depot (http://pga.mgh.harvard.edu/primerbank/, https://primerdepot.nci.nih.gov), and their specificity was verified using primer blast (http://www.ncbi.nlm.nih.gov/tools/primer-blast/).
Here IC50 represents the concentration necessary to obtain 50% of EZH2 transcription activity.

[5] = test system: normal human melanocyte; experiment: Melanocyte viability assay (trypan blue exclusion); assay type: cell-based; settings: 96 h
Method: (§1) Cell viability effects were evaluated by trypan blue exclusion assay. Briefly, cells were seeded into 12-well plate and grown in media supplemented with indicated compound at 10 μM for 96 h. Cells were washed with PBS and detached by trypsinization, collected and colored by trypan blue. Dead and living cells were counted and cell viability was calculated as follow: Viability (%)=100−[(dead cell number/total cells)*100].

[6] = test system: normal human fibroblast; experiment: Fibroblast viability assay (trypan blue exclusion); assay type: cell-based; settings: 96 h
Method: as §1

[7] = test system: B16 melanoma cells; experiment: Established subcutaneous B16 melanoma in C57Bl6 mice; assay type: in vivo
Method: FIG. 3. Compound 5 treatment is effective when used alone in reducing tumor growth in vivo and potentiates the anti-PD1 immune response in C57Bl6 mice subcutaneously injected with B16 melanoma cells. B16 cells were injected subcutaneously and the tumors were let to grow until an average volume of 100 mm^3 was reached. The mice were then sorted into four groups with similar average tumor volume and standard deviation. Treatment with compound 5 (10 mg/kg) or control (DMSO) was given by intraperitoneal injection every day. Anti-PD1 antibodies (125 μg/mouse) was given every other day alone or combined with daily injection of compound 5. Number of mice for each treatment group=8.
(§2) 0.5×10^6 cells in 100 μL PBS were subcutaneously injected into 4-week-old female C57Bl/6 mice (for the B16 experiment) or Balb/c mice (for the CT26 experiments). DZNEP is an inhibitor of the catalytic activity of EZH2 and was used as an additional control.
The inventors then asked whether compound 5 was able to increase the survival rate of mice with already established tumor and, if that was the case, also in this situation was able to synergize with anti-PD1 treatment. They thus decided to use the model B16 melanoma cells in C57Bl6 mice. B16 cells were again injected subcutaneously and the tumors were let to grow until an average volume of 100 mm3 was reached. […]

[8] = test system: CT26 cells; experiment: Spleen CD3+ T-cells of treated mice cocultured with naïve CT26 cells; assay type: in vivo; settings: coculture 24 or 48 h
Method: 1 mg/kg DZNEP and 10 mg/kg compound 5 were used for the subsequent experiments. Tridimensional measurements were performed daily, and the tumor volume was expressed as mm^3. […] Freshly collected tumors were dissociated and stained for immune-cell infiltrate using a flow cytometer. CD3+ T cells from spleen tissue were negatively selected using myltennyi magnetic columns and put in contact with naïve CT26 cells for 24 or 48 h. The CT26 cells were subsequently stained with DAPI (0.5 μg/ml, Molecular Probes, Grand Island, N.Y., USA). The T-cells were stained with CD8, perforin, and granzyme B antibodies and analyzed immediately by flow cytometry using a MACS-Quant Analyzer (Miltenyi Biotec, Paris, France).
Spleens were extracted and disaggregated, and the cells were resuspended in PBS. T-cells were isolated by CD3 negative selection to avoid activation. […] The flow-through containing the enriched fraction of CD3 cells was collected and analyzed by flow cytometry to determine the yield of the enrichment (CD3 cells constituted a minimum 70% of the total cells collected).

[9] = test system: CT26 colon-cancer cells; experiment: Subcutaneous CT26 colon-cancer tumors in Balb/c mice; assay type: in vivo; settings: compound 5 10 mg/kg, DZNEP 1 mg/kg, FIG. 2A
Method: A. Tumor progression in Balb/c mice subcutaneously injected with CT26 cells (0.5×10^6). After 3 days, treatment with compound 5 (10 mg/kg) or DMSO was given by intraperitoneal injection every other day starting 3 days after the first injection. Two groups of mice (with either DMSO or compound 5 treatment) were treated with anti-PD1 antibody injected subcutaneously every other day. Number of mice for each treatment group=10.
as §2
1 mg/kg DZNEP and 10 mg/kg compound 5 were used for the subsequent experiments. Tridimensional measurements were performed daily, and the tumor volume was expressed as mm^3. […] The T-cells were stained with CD8, perforin, and granzyme B antibodies and analyzed immediately by flow cytometry using a MACS-Quant Analyzer (Miltenyi Biotec, Paris, France).
Tumors were extracted and disaggregated using […] strainers. […] FoxP3 was detected by cell intranuclear staining employing the BD Pharmingen™ Mouse Foxp3 Buffer Set according to the manufacturer's instructions. IFN-γ, perforin, and granzyme B were detected by intracellular staining using the BD Cytofix/Cytoperm™ Kit following the manufacturer's instructions. […]

Compound: COc1ccc(Nc2ccnc3cc(Cl)ccc23)cc1 [Compound 5, 4-((4-methoxyphenyl)amino)-7-chloroquinolinium chloride]
- activity at 1 µM ([1]; 48 h, read-out: Proliferation (%) At 1 μM - 48 H): 91%
- activity at 1 µM ([1]; 96 h, read-out: Proliferation (%) At 1 μM - 96 H): 77.1%
- activity at 10 µM ([1]; 48 h, read-out: Proliferation (%) At 10 μM - 48 H): 67.5%
- activity at 10 µM ([1]; 96 h, read-out: Proliferation (%) At 10 μM - 96 H): 58.1%
- proliferation of normal human melanocytes or fibroblasts [2]: Neither treatment had any effect
- clinical signs of toxicity [3]: no clinical signs of toxicity
- liver enzymes in the blood [3]: remained in the normal range
- liver weight and systemic glycemia compared to the other mice [3]: similar
- IC50 [4]: 5 µM
- Viability (%) at 10 μM Melanocyte [5]: 99.5%
- Viability (%) at 10 μM Fibroblast [6]: 98.6%
- death dependent from treatment ([7]; B16 experiment): no death dependent from compound 5 treatment was observed
- median survival ([7]; days from injection, treatment started at tumor volume 100 mm3, control 13 days): 20 days

Compound: Nc1nccc2c1ncn2C1C=C(CO)C(O)C1O (stereo not drawn) [DZNEP]
- killing of naïve CT26 cells by T-cells isolated from treated mice [8]: more effective in killing CT26 cells
- growth of the CT26 tumors [9]: significantly reduced
